Legend:
E. coli (DH5α) = experiment: Antibiotic activity testing (TC50, dilution assay); assay type: cell-based; conditions: concentration that inhibits 50% of growth, turbidity OD600
Method: The TC50 or MIC procedure for antibiotic sensitivity testing involves an antibiotic dilution assay, which can be performed in microtitre plates. A series of twofold dilutions of each antibiotic are made in the wells, and then all wells are inoculated with a standard amount of the same test organism. After incubation, growth in the presence of the various antibiotics is observed by measuring turbidity.
Bacteria: B. pumilus and E. coli (DH5α)
Bacterial cultures are initiated from the plates for 2 to 3 weeks. After this time period bacteria are streaked out on new plates from the backups stored at −80° C. Due to the lack of resistance of the bacteria, new cultures are not to be initiated from an old plate or any liquid cultures derived from old plates.
Growth medium (GM)(per liter): 10 g Bacto-tryptone, 5 g Bacto-yeast extract, 6 g HEPES (25 mM), 5.4 g NaCl, pH 7.3
Compound stocks 10 or 100 mM in DMSO stored at −20° C.
1. Grow B.pumilus from an LB agar plate in a flask (max. 10% volume) up to about 50 ml in growth medium (GM)
2. Dilute overnight suspension 1:10 in GM
3. Determine OD600 of diluted bacterial suspension
4. Dilute bacterial suspension in GM to an OD600 of 0.03-0.04. (6 ml/plate)
5. Add 200 μl GM to the outer wells (Row A, Row H, Column 1, Column 12)
6. Add 100 μl GM to each well starting from C2, row 3.
7. Controls: Wells B2-B4 growth control. Wells B6-B8 blank. Row C growth inhibition control. • 7.1. To wells B2-B4 add: 96 μl GM, 4 μl DMSO, and 100 μl bacterial suspension adjusted to an OD600 of 0.03-0.04. • 7.2. To wells B6-B8 add: 196 μl GM and 4 μl DMSO • 7.3. Dilute a 10 mM COMPOUND 43 (positive control) stock to 800 μM (120 μl/plate) in GM. Add 100 μl of 800 μM COMPOUND 43 solution to well C2.
8. Samples • 8.1. Dilute the 10 or 100 mM stock solutions to 800 μM (250 μl/plate) in GM. • 8.2. Add 100 μl of 800 μM sample in duplicates to wells D2/E2 resp. F2/G2. • 8.3. 2-fold serial dilution of all samples and Azithromycin • 8.3.1. Rows C-G, Columns 2: Mix and transfer 100 μl from each row to Column 3, and continue until column 11. […]
11. Determine OD600 on plate reader.

white blood cells = experiment: Immune cell selective uptake (immune selectivity ratio) in blood cell preparations; assay type: cell-based, mammalian; parameters: key: Y: Compounds exhibiting high uptake; N: similar structures that do not; conditions: uptake in white cells from blood cell mix; Y/N
Method: Freshly drawn heparinised blood or buffy coat preparations are used for the determination of immune cell partition ratios. Buffy coat preparations are preferred. These may be obtained from donor blood by simple centrifugation of whole blood (4795 g for 10 minutes). Following centrifugation, plasma is collected from the surface, after which immune cells are expressed from the donor bags along with the erythrocytes lying immediately below the leukocyte layer. This ensures high yields and a sufficient population of erythrocytes for partition. 5 ml of the resulting cell suspension are dispensed into T25 culture flasks. Substrates are added to a final concentration between 1 and 10 μM and the suspensions incubated at 37° C., in a 5% CO2 atmosphere. For analysis of uptake kinetics, samples are withdrawn at 0, 2, 5, 10, 30, 60, 90, 180, or 240 min after substrate addition. For screening purposes, samples are taken at 0 and 120 minutes.
Cell fractions were prepared using density gradient centrifugation. Mononuclear cells and polymorphonuclear cells are separated from erythrocytes essentially by layering the cell suspension on a viscous medium typically composed of a solution containing Ficoll or similar (commercial suppliers include: Lymphoprep, Axis Shield, 1031966; Lymphoflot HLA, 824010; or PMN Separation Medium Robbins Scientific 1068-00-0). The layered suspension is then centrifuged at 600 g, 20 min, after which the cell fractions and the plasma (incubation medium) fraction are removed by gentle aspiration, washed twice in PBS buffer, followed by estimation of the cell number and pellet volume.
Uptake of fluorescent compounds is monitored using fluorescence microscopy. Excitation and emission wavelengths depend of the fluorescence label in use. A typical label is a methoxy coumarin for which the appropriate wavelengths are 360 and 450 nm respectively. Fluorescent analogs of the compounds under study permit the estimation of appropriate uptake intervals as well as the likely intracellular distribution of the compounds. Fluorescent analogs also allow the estimation of losses in washing or other cell manipulations.
Cell preparations are lysed in water and the debris sedimented at 16100 g, 10 min. The supernatant is recovered and sub-sampled for protein and DNA content. Protein in the supernatant is precipitated by bringing the solution to […] ethanol and centrifuging again at 16100 g, 10 min.
Compound uptake is normalized according to cytoplasmic volume of cells in order to obtain the average concentration in the cells. Cell volume is estimated by correlation of DNA, protein or haem content of lysed cell aliquots to cell number and packed volume prior to lysis.
Cell lysates are analysed using a HP 1100 HPLC System (Agilent Technologies, Waldbronn, Germany) with a Kromasil 3.5μ C18, 50×2.0 mm column and guard cartridge system (both, Phenomenex, Aschaffenburg, Germany) run at 30° C. A gradient elution was performed using water, 0.05% formic acid (A) and acetonitrile 0.05% formic acid (B) (0 min. 5% B, 2.5 min 5% B, 2.8 min 40% B, 10.5 min 85% B, 12.0 min 95% B, 16.5 min 95% B) at a flow rate of 300 μl/min. Re-equilibration of column was at 5% B, at a flow rate of 750 μl/min for 2.4 min. The HPLC-eluate from retention time 0.0 min to 2.5 min was directed directly to waste. Detection was via a UV cell at 214 nm followed by a ⅙ split to an An API-qTOF 1 (Micromass, Manchester, UK) mass spectrometer, (calibrated daily using a mixture of NaI, RbI and CsI). The mass spectrometer is routinely operated in the positive electrospray ionization mode using the following settings: Capillary voltage 4000 V; cone voltage 30 V; RF Lens offset 0.38 V; source block temperature 80° C.; desolvation gas temperature 140° C.; desolvation gas 240 l/h; LM/HM Resolution 0.0; Collision energy 4.0 V; Ion energy 5.0 V.
Masses are monitored according to the known or expected M/Z ratios. […]

Row | SMILES | TC50 in E. coli (E. coli (DH5α)) | Concentrative uptake (white blood cells)
1 | CC[C@H]1OC(=O)[C@H](C)[C@@H](O[C@H]2C[C@@](C)(OC)[C@@H](O)[C@H](C)O2)[C@H](C)[C@@H](O[C@@H]2O[C@H](C)C[C@H](N(C)C)[C@H]2O)[C@](C)(O)C[C@@H](C)CN(C)[C@H](C)[C@@H](O)[C@]1(C)O [COMPOUND 43, 9a-aza-9a-methyl-9-deoxo-9a-homoerythromycin A, reference compound] | 2.3 µM | 
2 | CC[C@H]1OC(=O)[C@H](C)[C@@H](O[C@H]2C[C@@](C)(OC)[C@@H](O)[C@H](C)O2)[C@H](C)[C@@H](O[C@@H]2O[C@H](C)CC(N(C)C(=O)CN(C)CCO)[C@H]2O)[C@](C)(O)C[C@@H](C)CN(C)[C@H](C)[C@@H](O)[C@]1(C)O (stereo partly drawn) [COMPOUND 45] | >50 µM | 
3 | CC[C@H]1OC(=O)[C@H](C)C(=O)[C@H](C)[C@@H](O[C@@H]2O[C@H](C)C[C@H](N(C)C)[C@H]2OC(=O)Cc2ccccc2Nc2c(Cl)cccc2Cl)[C@](C)(O)C[C@@H](C)CN(C)[C@H](C)[C@@H](O)[C@]1(C)O [COMPOUND 53] | >50 µM | 
4 | O=c1ccc2cc(O[C@@H]3O[C@H](CO)C(O)[C@H](O)C3O)c(O)cc2o1 (stereo partly drawn) [Compound 1] |  | Y
5 | CC[C@H]1OC(=O)[C@H](C)[C@@H](OC2C[C@@](C)(OC)[C@@H](O)[C@H](C)O2)[C@H](C)[C@@H](OC2O[C@H](C)C[C@H](N(C)C)[C@H]2O)[C@](C)(O)C[C@@H](C)/C(=N/OCc2cc(=O)oc3cc(OC)c(OC)cc23)[C@H](C)[C@@H](O)[C@]1(C)O (stereo partly drawn) [Compound 3] |  | Y
6 | COc1cc(C)c(/C(=C\C(C)=O)CC(N)C(=O)O)cc1OC (stereo not drawn) [Compound 4] |  | Y
7 | CC[C@H]1OC(=O)[C@H](C)[C@@H](O[C@H]2C[C@@](C)(OC)[C@@H](O)[C@H](C)O2)[C@H](C)[C@@H](OC2O[C@H](C)C[C@H](N(C)C)[C@H]2O)[C@](C)(O)C[C@@H](C)CN(Cc2cc(=O)oc3cc(OC)ccc23)[C@H](C)[C@@H](O)[C@]1(C)O (stereo partly drawn) [Compound 7] |  | Y
8 | CC(C)(C)OC(=O)NC(CSCC(=O)NCCNc1cccc2c(S(=O)(=O)O)cccc12)C(=O)O (stereo not drawn) [Compound 8] |  | Y
9 | COc1ccc2c(CSc3ncnc4[nH]cnc34)cc(=O)oc2c1 [Compound 9] |  | N
10 | COc1cc2oc(=O)cc(CC(NC(=O)CN)C(=O)O)c2cc1OC (stereo not drawn) [Compound 10] |  | N
11 | CN(C)c1cccc2c(S(=O)(=O)NNC(=N)N)cccc12 [Compound 11] |  | N
12 | COc1cc(C)c(/C(=C\C(C)=O)CC(NC(=O)CCN)C(=O)O)cc1OC (stereo not drawn) [Compound 12] |  | N
13 | COc1cc(C)c(/C(=C\C(C)=O)CC(NC(=O)C(N)CCC(=O)O)C(=O)O)cc1OC (stereo not drawn) [Compound 14] |  | N
14 | O=C(CSc1ncnc2[nH]cnc12)NCCNc1cccc2c(S(=O)(=O)O)cccc12 [Compound 15] |  | Y
15 | Cc1cc(=O)oc2cc(SCC(=O)NC3CCOC3=O)ccc12 (stereo not drawn) [Compound 22] |  | Y
16 | Cc1cc(=O)oc2cc(SCC(=O)NCCN3CCOCC3)ccc12 [Compound 23] |  | Y
17 | Cc1cc(=O)oc2cc(SCC(=O)NN3CCN(CCO)CC3)ccc12 [Compound 24] |  | N
18 | Cc1cc(=O)oc2cc(SCC(=O)NN3CCOCC3)ccc12 [Compound 25] |  | N
19 | CN(C)c1cccc2c(S(=O)(=O)NN3CCN(CCO)CC3)cccc12 [Compound 26] |  | Y
20 | CN(C)c1cccc2c(S(=O)(=O)Nc3cc(O)[nH]n3)cccc12 [Compound 27] |  | Y
21 | COC(=O)C1CN(S(=O)(=O)c2cccc3c(N(C)C)cccc23)CCC1=O (stereo not drawn) [Compound 29] |  | N
22 | CN(C)c1cccc2c(S(=O)(=O)N3CCN(c4ccc(O)cc4)CC3)cccc12 [Compound 30] |  | N
23 | CN(C)c1cccc2c(S(=O)(=O)N3CCN(CCO)CC3)cccc12 [Compound 31] |  | N
24 | CN(C)c1cccc2c(S(=O)(=O)NC(C)(CO)CO)cccc12 [Compound 32] |  | N
25 | CN(C)c1cccc2c(S(=O)(=O)N(CCO)CCO)cccc12 [Compound 33] |  | N
26 | CN(C)c1cccc2c(S(=O)(=O)Nc3c[nH]c(=O)[nH]c3=O)cccc12 [Compound 34] |  | N
27 | CN(C)c1cccc2c(S(=O)(=O)Nc3ccc(C(=O)O)cc3O)cccc12 [Compound 35] |  | N
28 | CCN(CC)c1ccc(NS(=O)(=O)c2cccc3c(N(C)C)cccc23)cc1 [Compound 36] |  | N
29 | CN(C)c1cccc2c(S(=O)(=O)NCCCN3CCCC3=O)cccc12 [Compound 37] |  | N
30 | COc1ccc(/C(=C\C(C)=O)CSc2nnc(-c3ccc([NH+]([O-])O)o3)s2)c(C)c1 (stereo not drawn) [Compound 38] |  | N

— patent US7579324B2, “Conjugates of biologically active compounds, methods for their preparation and use, formulation and pharmaceutical applications thereof” (c-a-i-r biosciences GmbH, priority 2002, dated 2009)
